According to ChEMBL document CHEMBL3044681, “Piperamides and their derivatives as potential anti-trypanosomal agents” (Med Chem Res, 2009):

Each compound was assayed on Trypanosoma cruzi (assay: Antitrypanosomal activity against epimastigote forms of Trypanosoma cruzi Y after 72 hr). Conditions: not given; call rule not given here.
Type: functional, organism-based

**Q.** Which IC50 does the source give for COc1cc(/C=C/C(=O)O)cc(OC)c1OC [SINAPIC ACID METHYL ETHER] here?
**A.** Its IC50 is “Not Active”.

**Q.** Which IC50 does the source give for COc1cc(CCC(=O)N2CCCCC2=O)cc(OC)c1OC [TETRAHYDROPIPLARTINE] here?
**A.** The IC50 was “Not Active”.

**Q.** With CC(C)CNC(=O)/C=C/c1ccc2c(c1)OCO2 [FOGARAMIDE] as the compound, how does the IC50 read?
**A.** Its IC50 is “Not Active”.

**Q.** For CCCCCCCCCC(=O)NCC(C)C [TETRAHYDROPELLITORINE], which IC50 is on record?
**A.** Its IC50 is “Not Active”.

**Q.** Which IC50 does the source give for O=C(/C=C/CCc1ccc2c(c1)OCO2)N1CCCCC1 [PIPERANINE] here?
**A.** Its IC50 is “Not Active”.

**Q.** How did the IC50 turn out when CC(C)CNC(=O)/C=C/CCc1ccc2c(c1)OCO2 [4,5-DIHYDROPIPERLONGUMININE] was run?
**A.** The IC50 was “Not Active”.

**Q.** How did the IC50 turn out when COC(=O)/C=C/c1cc(OC)c(OC)c(OC)c1 was run?
**A.** Its IC50 is “Not Active”.

**Q.** O=C(O)/C=C/C=C/c1ccc2c(c1)OCO2 [PIPERIC ACID] was tested. Which IC50 did it give?
**A.** The IC50 was “Not Active”.

**Q.** Which IC50 does the source give for O=C(CCCCc1ccc2c(c1)OCO2)N1CCCCC1 [TETRAHYDROPIPERINE] here?
**A.** Its IC50 is “Not Active”.

Same assay, conditions: Trypanosoma cruzi, Y, 72 h; read-out: IC50

**Q.** With COc1cc(/C=C/C(=O)N2CCC=CC2=O)cc(OC)c1OC [PIPLARTINE] as the compound, how does the IC50 read?
**A.** The IC50 was 21 µM.

**Q.** COc1cc(/C=C\C(=O)N2CCC=CC2=O)cc(OC)c1OC [(Z)-PIPLARTINE] was tested. Which IC50 did it give?
**A.** The IC50 was 10.5 µM.

**Q.** How did the IC50 turn out when CCCCC/C=C/C=C/C(=O)NCC(C)C [PELLITORIN] was run?
**A.** Its IC50 is 57.1 µM.

**Q.** How did the IC50 turn out when O=C(/C=C/C=C/c1ccc2c(c1)OCO2)N1CCCCC1 [PIPERINE] was run?
**A.** The IC50 was 233 µM.
